Experimental data published in ChEMBL document CHEMBL1201862, “PubChem BioAssay data set” (2004).
Active and inactive are the calls of the source.

Assays:
[1] = Luminescence Cell-Based Dose Retest to Confirm Inhibitors of Cancer Stem Cells. [Related pubchem assays (depositor defined):AID2717, AID2721]; assay type: functional; details: Homo sapiens
[2] = molecular target: T1, Heat shock factor protein 1 (Mus musculus, UniProt P38532); assay: HSF1 potentiators in luciferase reporter cells, confirmation, cell-based, NIH3T3, luminescence, dose retest (AID 435004); assay type: functional;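 also: stress induced by proteasome inhibitor MG132 added 30 min after compound; luciferase reporter driven by HSF1 response element in NIH3T3 cells; actives raise luminescence as potentiators of the MG132 stress response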
T1 sequence (P38532 whole entry): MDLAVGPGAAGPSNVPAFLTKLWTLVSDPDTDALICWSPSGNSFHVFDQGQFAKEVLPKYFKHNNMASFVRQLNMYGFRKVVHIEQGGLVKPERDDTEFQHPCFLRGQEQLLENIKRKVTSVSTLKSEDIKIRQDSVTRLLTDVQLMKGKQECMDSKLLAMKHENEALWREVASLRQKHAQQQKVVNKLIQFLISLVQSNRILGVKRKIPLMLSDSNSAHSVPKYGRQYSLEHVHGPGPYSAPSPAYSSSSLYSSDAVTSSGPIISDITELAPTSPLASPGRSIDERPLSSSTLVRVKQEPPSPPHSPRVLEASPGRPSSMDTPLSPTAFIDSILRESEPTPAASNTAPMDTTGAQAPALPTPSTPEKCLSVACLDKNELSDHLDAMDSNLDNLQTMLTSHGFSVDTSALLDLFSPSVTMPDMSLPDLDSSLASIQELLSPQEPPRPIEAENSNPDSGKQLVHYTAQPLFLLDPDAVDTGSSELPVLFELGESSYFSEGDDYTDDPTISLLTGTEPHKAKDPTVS

[3] = cytotoxicity in HMLE control line with eGFP shRNA, dose response, counter-screen for HMLE_sh_ECad selective toxicity project, cell-based, HMLE_sh_eGFP, luminescence (AID 463074); assay type: functional, Homo sapiens;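 also: HMLE human mammary epithelial cells expressing control shRNA against eGFP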
Escherichia coli = assay: microbe, parasite or virus in culture
[4] = molecular target: Latent membrane protein 1 (Human herpesvirus 4 (strain B95-8), UniProt P03230); assay: TES1-eGFP NF-kB reporter inhibition versus Tet-On dsRED, dose response, selectivity assay for LMP1 NF-kB inhibitor project, imaging, HEK293T, dual-color eGFP/dsRED, cherry-picks (AID 588398); assay type: functional, cell-based
[5] = inhibitors of firefly luciferase expression or activity, dose response, H4 neuroglioma cells, luminescence (AID 1990); assay type: functional, cell-based
[6] = Luminescence Cell-Based Dose Response HTS to Identify Inhibitors of 5'UTR Stem-Loop Driven Prion Protein mRNA Translation in H4 Neuroglioblastoma Cells. [Related pubchem assays: 1827 (Project Summary), 1813 (Primary HTS)]; assay type: functional
[7] = inhibitors of SNCA 5'UTR-driven reporter translation, confirmation, H4 neuroglioma cells, luminescence (AID 1988); assay type: functional, cell-based
[8] = microbe, parasite or virus in culture; assay type: functional; details: Mycobacterium tuberculosis
CAAX prenyl protease 2 = CAAX prenyl protease 2 (Homo sapiens, UniProt Q9Y256); assay: human Rce1 protease inhibitors, dose response, biochemical, yeast membranes, quenched-peptide fluorescence, cherry-pick (AID 588849)
BJ [9] = assay: cytotoxicity toward BJ-TERT fibroblasts, dose response, cell-based, RAS-independent, luminescence (AID 1933); assay type: functional; details: Homo sapiens
[10] = molecular target: T1, Heat shock factor protein 1; assay: inhibition of MG132-induced HSE-luciferase signal, confirmation, cell-based, NIH3T3, luminescence, dose retest (AID 2382); assay type: functional;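 also: NIH3T3 fibroblasts with HSF1-driven luciferase reporter stressed by proteasome inhibitor MG132; luminescence from HSF1-driven luciferase expression after 8 hours of MG132 stress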
BJ [11] = assay: cells; assay type: functional, cell-based; details: Homo sapiens
BJ [12] = assay: cytotoxicity toward BJ-TERT-LT-ST fibroblasts, dose response, cell-based, RAS-independent, luminescence (AID 1935); assay type: functional; details: Homo sapiens;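 also: BJ fibroblasts immortalized with TERT plus LT and ST oncogenes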
[13] = cytotoxicity toward DRD oncogenic fibroblasts, dose response, cell-based, non-viral oncogenic, luminescence (AID 1934); assay type: functional; details: Homo sapiens
BJ [14] = assay: cytotoxicity toward Ras-transformed BJeLR fibroblasts, dose response, cell-based, alamar blue fluorescence, cherrypicked samples (AID 2631); assay type: functional; details: Homo sapiens;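 also: confirmatory dose-response assay in RAS-dependent BJ fibroblasts engineered with TERT, LT and ST, with cytotoxicity read by fluorescence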
Protein skinhead-1 = molecular target: T2, Protein skinhead-1 (Caenorhabditis elegans, UniProt P34707); assay type: functional
T2 sequence (P34707 whole entry): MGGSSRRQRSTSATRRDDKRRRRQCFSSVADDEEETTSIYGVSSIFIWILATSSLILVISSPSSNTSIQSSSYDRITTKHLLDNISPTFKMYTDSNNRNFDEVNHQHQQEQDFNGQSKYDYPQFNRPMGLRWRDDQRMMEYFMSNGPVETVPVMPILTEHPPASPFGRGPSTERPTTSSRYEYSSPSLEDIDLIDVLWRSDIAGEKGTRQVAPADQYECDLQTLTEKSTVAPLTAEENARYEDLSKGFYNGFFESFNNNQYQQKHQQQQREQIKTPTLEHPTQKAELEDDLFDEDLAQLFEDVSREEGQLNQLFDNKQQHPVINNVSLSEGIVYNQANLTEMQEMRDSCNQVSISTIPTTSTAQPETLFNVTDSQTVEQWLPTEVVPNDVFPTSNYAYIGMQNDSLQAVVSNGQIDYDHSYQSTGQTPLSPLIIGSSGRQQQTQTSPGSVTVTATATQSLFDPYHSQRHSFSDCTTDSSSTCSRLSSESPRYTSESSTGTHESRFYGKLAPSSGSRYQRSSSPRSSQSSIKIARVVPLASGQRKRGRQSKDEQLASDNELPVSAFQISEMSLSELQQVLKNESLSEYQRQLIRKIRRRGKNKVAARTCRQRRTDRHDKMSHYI

fMet-Leu-Phe receptor = molecular target: T3, fMet-Leu-Phe receptor (Homo sapiens, UniProt P21462); assay: FPR ligands, dose response (AID 519); assay type: functional
T3 sequence (P21462 whole entry): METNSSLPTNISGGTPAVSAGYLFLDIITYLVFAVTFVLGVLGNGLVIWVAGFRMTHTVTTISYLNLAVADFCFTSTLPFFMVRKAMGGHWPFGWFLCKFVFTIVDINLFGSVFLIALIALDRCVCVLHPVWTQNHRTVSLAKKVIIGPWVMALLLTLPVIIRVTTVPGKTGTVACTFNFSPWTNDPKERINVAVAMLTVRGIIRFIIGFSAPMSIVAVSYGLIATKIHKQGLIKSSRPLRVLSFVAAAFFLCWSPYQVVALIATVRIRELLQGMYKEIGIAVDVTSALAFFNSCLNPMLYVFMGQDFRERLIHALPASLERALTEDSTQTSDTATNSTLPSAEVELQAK

Cytochrome P450 1A2 = molecular target: T4, Cytochrome P450 1A2 (Homo sapiens, UniProt P05177);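 also: PubChem cytochrome P450 panel assay, CYP1A2 panel member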
T4 sequence (P05177 whole entry): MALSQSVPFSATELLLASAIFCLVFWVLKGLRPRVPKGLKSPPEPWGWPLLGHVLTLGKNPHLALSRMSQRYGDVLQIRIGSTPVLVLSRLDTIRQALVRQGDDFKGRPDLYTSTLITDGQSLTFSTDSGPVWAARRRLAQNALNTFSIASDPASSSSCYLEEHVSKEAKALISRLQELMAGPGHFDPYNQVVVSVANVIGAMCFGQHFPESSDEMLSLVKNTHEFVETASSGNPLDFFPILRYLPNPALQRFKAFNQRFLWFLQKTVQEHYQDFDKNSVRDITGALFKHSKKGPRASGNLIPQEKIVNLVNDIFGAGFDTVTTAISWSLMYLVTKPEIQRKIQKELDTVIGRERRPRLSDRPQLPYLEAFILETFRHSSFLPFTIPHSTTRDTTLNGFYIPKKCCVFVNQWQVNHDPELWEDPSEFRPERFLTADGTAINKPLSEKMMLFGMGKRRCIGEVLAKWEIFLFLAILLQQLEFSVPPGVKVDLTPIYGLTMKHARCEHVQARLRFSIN

Cytochrome P450 2D6 = Cytochrome P450 2D6 (Homo sapiens, UniProt P10635);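 also: CYP2D6 member of a cytochrome P450 panel assay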
Phospholipase D1 = Phospholipase D1 (Homo sapiens, UniProt Q13393); assay: PLD1 inhibitor potency in cells, dose response (AID 602151); assay type: functional;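 also: cellular PLD1 assay in Calu-1 cells stimulated with PMA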
Phospholipase D2 = Phospholipase D2 (Homo sapiens, UniProt O14939); assay: PLD2 inhibitor potency in cells, dose response (AID 602147); assay type: functional;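 also: cellular assay in HEK293 cells overexpressing GFP-tagged PLD2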
Nonstructural protein 1 = Nonstructural protein 1 (Influenza A virus, UniProt Q194T2); assay type: functional, Influenza A virus (A/California/07/2009(H1N1))
Chain of Nonstructural protein 1 (Q194T2 whole entry): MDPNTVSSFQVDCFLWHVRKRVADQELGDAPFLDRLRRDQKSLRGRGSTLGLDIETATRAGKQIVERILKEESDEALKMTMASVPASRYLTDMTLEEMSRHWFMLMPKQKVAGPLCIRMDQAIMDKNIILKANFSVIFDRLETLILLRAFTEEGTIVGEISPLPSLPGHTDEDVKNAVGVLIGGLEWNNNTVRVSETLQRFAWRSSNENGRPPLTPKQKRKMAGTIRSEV

Chain of Phospholipase D2 (O14939 whole entry): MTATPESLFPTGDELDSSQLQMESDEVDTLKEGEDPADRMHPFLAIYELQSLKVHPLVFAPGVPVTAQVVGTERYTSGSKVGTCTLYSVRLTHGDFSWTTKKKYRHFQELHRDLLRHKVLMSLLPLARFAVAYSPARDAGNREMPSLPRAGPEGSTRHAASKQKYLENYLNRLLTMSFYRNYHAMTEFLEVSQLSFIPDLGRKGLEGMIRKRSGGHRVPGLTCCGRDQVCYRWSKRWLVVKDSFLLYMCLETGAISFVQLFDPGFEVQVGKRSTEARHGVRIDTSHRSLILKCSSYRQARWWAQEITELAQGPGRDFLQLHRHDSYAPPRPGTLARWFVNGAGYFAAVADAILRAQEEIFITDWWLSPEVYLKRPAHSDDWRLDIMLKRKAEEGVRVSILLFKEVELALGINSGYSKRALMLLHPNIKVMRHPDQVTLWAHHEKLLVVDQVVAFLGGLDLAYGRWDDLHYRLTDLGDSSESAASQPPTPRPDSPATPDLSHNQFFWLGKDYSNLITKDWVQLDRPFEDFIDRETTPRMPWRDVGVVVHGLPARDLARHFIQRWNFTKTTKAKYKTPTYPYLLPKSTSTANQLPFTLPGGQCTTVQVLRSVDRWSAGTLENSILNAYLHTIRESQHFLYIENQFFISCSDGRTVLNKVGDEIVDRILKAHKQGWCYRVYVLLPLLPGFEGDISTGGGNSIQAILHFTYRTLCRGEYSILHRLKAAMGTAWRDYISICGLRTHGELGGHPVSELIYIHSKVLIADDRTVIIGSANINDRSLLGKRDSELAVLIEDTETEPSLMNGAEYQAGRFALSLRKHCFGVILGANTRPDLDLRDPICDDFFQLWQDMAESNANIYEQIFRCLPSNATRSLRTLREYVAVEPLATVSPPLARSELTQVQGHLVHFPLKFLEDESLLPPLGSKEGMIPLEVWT
Chain of Phospholipase D1 (Q13393 whole entry): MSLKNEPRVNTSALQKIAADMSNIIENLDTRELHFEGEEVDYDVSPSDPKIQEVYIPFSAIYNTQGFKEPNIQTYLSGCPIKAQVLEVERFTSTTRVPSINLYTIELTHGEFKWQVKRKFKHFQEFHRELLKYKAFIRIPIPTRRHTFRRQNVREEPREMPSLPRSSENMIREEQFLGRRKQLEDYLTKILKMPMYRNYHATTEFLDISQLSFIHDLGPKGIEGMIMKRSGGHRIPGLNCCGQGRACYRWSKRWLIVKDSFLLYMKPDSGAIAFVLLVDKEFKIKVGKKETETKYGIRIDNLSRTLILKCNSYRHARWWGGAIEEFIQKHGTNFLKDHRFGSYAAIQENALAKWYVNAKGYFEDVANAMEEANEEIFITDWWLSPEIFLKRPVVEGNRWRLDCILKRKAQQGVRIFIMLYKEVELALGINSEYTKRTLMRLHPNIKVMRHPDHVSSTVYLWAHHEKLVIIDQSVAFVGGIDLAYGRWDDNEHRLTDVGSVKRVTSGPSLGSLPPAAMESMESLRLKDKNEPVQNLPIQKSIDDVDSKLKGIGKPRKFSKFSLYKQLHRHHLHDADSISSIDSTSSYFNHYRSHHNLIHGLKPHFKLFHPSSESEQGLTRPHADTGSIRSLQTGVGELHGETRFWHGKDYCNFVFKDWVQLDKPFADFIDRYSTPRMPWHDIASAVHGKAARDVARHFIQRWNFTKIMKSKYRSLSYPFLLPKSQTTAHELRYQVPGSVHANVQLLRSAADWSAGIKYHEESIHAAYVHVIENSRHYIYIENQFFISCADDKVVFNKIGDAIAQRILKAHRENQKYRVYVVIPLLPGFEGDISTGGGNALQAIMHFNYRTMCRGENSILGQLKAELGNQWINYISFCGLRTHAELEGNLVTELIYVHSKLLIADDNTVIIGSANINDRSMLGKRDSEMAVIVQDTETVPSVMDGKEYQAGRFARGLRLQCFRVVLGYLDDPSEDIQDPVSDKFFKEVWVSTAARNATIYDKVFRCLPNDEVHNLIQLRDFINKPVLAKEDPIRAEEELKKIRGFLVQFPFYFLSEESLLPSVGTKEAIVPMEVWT
Chain of Latent membrane protein 1 (P03230 whole entry): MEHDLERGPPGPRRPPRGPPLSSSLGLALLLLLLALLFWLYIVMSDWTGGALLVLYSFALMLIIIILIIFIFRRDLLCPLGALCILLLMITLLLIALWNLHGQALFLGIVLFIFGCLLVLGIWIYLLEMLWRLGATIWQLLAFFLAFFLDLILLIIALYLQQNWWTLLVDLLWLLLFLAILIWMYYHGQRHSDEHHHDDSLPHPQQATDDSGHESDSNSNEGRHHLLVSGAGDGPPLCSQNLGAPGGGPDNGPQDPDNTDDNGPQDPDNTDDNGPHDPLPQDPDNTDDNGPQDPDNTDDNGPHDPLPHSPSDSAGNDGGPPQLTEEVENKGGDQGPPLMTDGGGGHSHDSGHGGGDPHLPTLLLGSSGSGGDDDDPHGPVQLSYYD
Chain of Cytochrome P450 2D6 (P10635 whole entry): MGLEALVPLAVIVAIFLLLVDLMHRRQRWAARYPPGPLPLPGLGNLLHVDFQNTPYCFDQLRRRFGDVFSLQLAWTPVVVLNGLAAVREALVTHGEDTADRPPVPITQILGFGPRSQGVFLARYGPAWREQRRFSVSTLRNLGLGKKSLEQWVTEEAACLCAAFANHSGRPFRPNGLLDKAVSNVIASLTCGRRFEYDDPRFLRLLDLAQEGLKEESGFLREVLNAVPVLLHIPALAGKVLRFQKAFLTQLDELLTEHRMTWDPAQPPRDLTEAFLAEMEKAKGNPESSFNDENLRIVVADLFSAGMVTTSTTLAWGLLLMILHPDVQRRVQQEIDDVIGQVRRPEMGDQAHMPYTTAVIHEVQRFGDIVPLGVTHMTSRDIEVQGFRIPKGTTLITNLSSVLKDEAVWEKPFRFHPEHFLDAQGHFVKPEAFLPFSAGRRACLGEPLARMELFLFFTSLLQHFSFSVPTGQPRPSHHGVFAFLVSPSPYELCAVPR
Chain of CAAX prenyl protease 2 (Q9Y256 whole entry): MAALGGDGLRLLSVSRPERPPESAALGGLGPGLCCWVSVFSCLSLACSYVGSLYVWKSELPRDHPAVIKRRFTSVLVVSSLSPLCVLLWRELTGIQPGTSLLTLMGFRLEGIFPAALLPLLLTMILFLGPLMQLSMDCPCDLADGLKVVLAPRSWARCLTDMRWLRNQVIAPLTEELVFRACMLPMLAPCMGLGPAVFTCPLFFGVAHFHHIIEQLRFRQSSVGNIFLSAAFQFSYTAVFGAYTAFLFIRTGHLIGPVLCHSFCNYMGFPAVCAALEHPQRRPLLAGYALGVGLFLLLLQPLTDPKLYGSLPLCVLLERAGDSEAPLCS

Compound: O=C1C2CC=CCC2C(=O)N1c1ccc(NCCc2ccccc2)c([N+](=O)[O-])c1 (centres undefined)
- AC50 [1]: 0.209 µM (active)
- EC50 [2]: 13.4 µM (active)
- AC50 [3]: 36.3 µM (active)

Compound: Cc1c(N=C2NC3(CCCCC3)Cc3ccccc32)c(=O)n(-c2ccccc2)n1C
- AC50 (Escherichia coli): > 150 µM (inactive)

Compound: O=[N+]([O-])c1ccc(CN2CC=C(c3ccccc3)CC2)cc1
- AC50 [4]: 178 µM (active)

Compound: OCCN1CCN(C(S)=Nc2ccc(Oc3ccccc3)cc2)CC1
- AC50 (Escherichia coli): 82.3 µM (active)

Compound: CN(C)CCCN(C(=O)c1cc(-c2cccs2)nc2ccccc12)c1nc2ccc(F)cc2s1
- EC50 [5]: > 60 µM (not active)
- EC50 [6]: 12.2 µM (active)
- EC50 [7]: 8.08 µM (active)
- CC50 [8]: 25.1 µM (active)
- AC50 (CAAX prenyl protease 2): 29 µM (active)

Compound: CC(C)c1onc(C(=O)N2CCN(C(c3ccccc3)c3ccccc3)CC2)c1[N+](=O)[O-]
- EC50 (BJ [9]): 0.621 µM (inconclusive)
- EC50 [10]: 3.16 µM (active)
- EC50 (BJ [11]): 14.4 µM (inconclusive)
- EC50 (BJ [12]): > 150 µM (not active)
- EC50 [13]: 2.69 µM (active)
- EC50 (BJ [14]): 5.72 µM (active)

Compound: Cc1ccc(C)c(-n2c(CNC(=O)c3ccco3)nnc2SCC(=O)N2CCc3ccccc32)c1
- IC50 (Protein skinhead-1): > 100 µM (inactive)
- Ki (fMet-Leu-Phe receptor): > 66.7 µM (inactive)
- AC50 (Cytochrome P450 1A2): 2.51 µM (inconclusive)
- AC50 (Cytochrome P450 2D6): inconclusive

Compound: O=C(NCCN1CCC(n2c(=O)[nH]c3ccccc32)CC1)c1cc([N+](=O)[O-])cc([N+](=O)[O-])c1
- IC50 (Phospholipase D1): 0.27 µM (active)
- IC50 (Phospholipase D2): 1.32 µM (active)

Compound: O=C(NCCN1CCC(n2c(=O)[nH]c3ccccc32)CC1)Nc1cccc(F)c1
- IC50 (Phospholipase D1): 0.078 µM (active)
- IC50 (Phospholipase D2): 2.3 µM (active)

Compound: COc1ccc(/C=C2\CCC/C(=C\C=N\N(C)C)C2=O)cc1
- CC50 [8]: 9.83 µM (active)
- AC50 [1]: 25 µM (active)
- IC50 (Nonstructural protein 1): 50.6 µM (active)
- AC50 [3]: 20.8 µM (active)
